Positions count from the first letter of the chain named. Read-outs that look alike come from different tables or passages of the source. Each block holds one molecule with its values, some of them ahead of it.
Legend:
[1] = system: HCT116 cells containing MPS1 p.M600T; experiment: Cell viability assay, HCT116 NvR clones with MPS1 p.M600T (NvR1 etc.); conditions: for GI50: Homo sapiens
[2] = system: HCT116 cells containing MPS1 p.C604W; experiment: Cell viability assay, HCT116 NvR clones with MPS1 p.C604W (NvR12 etc.); conditions: for GI50: Homo sapiens
[3] = target: T1, recombinant full-length MPS1 p.C604W (Homo sapiens, UniProt P33981, C604W); experiment: Recombinant MPS1 kinase assay (electrophoretic mobility shift), p.C604W; type: biochemical; conditions: for IC50: C604W, mean ± SD, quadruplicate
T1 construct: made in house; host or cells: Sf9 insect cells (baculovirus, modified pFastBac1)
T1 sequence (P33981 1-857 C604W): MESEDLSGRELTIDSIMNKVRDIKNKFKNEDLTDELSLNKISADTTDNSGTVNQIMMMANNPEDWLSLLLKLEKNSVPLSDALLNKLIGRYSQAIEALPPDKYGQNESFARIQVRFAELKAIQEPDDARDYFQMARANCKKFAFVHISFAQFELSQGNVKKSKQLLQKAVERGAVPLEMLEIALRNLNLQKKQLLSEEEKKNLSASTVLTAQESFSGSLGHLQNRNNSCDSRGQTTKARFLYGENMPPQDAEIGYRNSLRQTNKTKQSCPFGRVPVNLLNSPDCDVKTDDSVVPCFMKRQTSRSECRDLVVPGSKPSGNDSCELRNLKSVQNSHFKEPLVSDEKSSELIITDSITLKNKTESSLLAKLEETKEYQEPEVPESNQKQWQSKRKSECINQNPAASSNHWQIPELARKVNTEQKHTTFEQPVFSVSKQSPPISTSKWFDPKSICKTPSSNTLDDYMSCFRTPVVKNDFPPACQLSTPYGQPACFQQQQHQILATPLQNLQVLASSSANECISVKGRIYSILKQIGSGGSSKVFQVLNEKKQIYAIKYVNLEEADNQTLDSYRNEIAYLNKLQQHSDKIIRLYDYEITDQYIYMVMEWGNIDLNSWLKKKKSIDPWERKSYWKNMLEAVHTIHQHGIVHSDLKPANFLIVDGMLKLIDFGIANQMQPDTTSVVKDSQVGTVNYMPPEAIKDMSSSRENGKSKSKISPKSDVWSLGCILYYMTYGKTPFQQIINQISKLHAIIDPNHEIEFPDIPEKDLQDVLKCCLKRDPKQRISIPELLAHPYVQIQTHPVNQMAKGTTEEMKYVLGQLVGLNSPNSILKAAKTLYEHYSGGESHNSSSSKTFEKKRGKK
Protocol: (§1) For high ATP concentration assays, 1 mM ATP was used. An ECHO® 550 (Labcyte Inc) acoustic dispenser was used to generate duplicate 8 point dilution curves directly into 384-well low-volume polystyrene assay plates (Corning Life Sciences). The reaction was carried out for 90 min at room temperature.

[4] = target: T2, recombinant full-length wild-type MPS1 (Homo sapiens, UniProt P33981); experiment: Recombinant MPS1 kinase assay (electrophoretic mobility shift), WT; type: biochemical; conditions: mean ± SD, quadruplicate
T2 construct: For protein expression of full-length MPS1 proteins, Sf9 insect cells were grown at 27° C; made in house; host or cells: Sf9 insect cells (baculovirus, modified pFastBac1)
T2 sequence (P33981 1-857): T1 sequence (P33981 1-857 C604W) with W604C
Protocol: as §1

parental HCT116 cells [5] = experiment: Flow cytometry cell cycle profiles, parental HCT116; type: cell-based, human
Protocol: Cells were fixed overnight at −20° C. in 70% ethanol, washed in PBS, then incubated in 10 μg/ml propidium iodide and 0.5% RNase (Sigma) for 30 min and then analysed using LSRII flow cytometer (BD Biosciences).

HeLa cells = experiment: Time-lapse microscopy, time in mitosis and mitotic defects, HeLa; type: cell-based; conditions: 0.6 μM CCT251455
Protocol: (§2) For analysis by immunofluorescence, cells were fixed in 1% formaldehyde for 5 min at room temperature, quenched in glycine, washed in PBS-Triton X-100 (0.1% PBS-T) and incubated for 1 hour in primary antibodies in PBS-T: MAD2 (Bethyl Laboratories Inc., A300-301A), CDC2020 (Millipore, MAB3775), MPS1 (Millipore, 05-682), MPS1 pT33pS37 (Life Technologies, 44-1325G) and ACA (ImmunoVision, HST-0100). After PBS-T washes, cells were incubated with fluorescent-conjugated secondary antibodies (Life Technologies), stained with DAPI (Life Technologies) and mounted onto slides with Vectashield (Vector Labs). Images were acquired using a Zeiss LSM 710 confocal microscope and processed using Velocity 3D Image analysis software (PerkinElmer). Time-lapse micrscopy was performed in 96-well Ibidi plate (Thistle Scientific) using a Diaphot inverted microscope (Nikon), in a humidified CO2 chamber at 37° C., using a motorized stage (Prior Scientific), controlled by Simple PCI software (Compix).

[6] = system: taxol or nocodazole-induced SAC; experiment: Abrogation of taxol or nocodazole-induced SAC (mitotic index, MPM2 staining and flow cytometry); type: cell-based; conditions: within 1 hour following inhibitor treatment; 0.6 μM CCT251455
Protocol: (§3) Cells were fixed overnight at −20° C. in 70% ethanol, washed in PBS, then incubated in 10 μg/ml propidium iodide and 0.5% RNase (Sigma) for 30 min and then analysed using LSRII flow cytometer (BD Biosciences). To stain for mitosis, cells were incubated for 1 hour at 4° C. with anti-MPM2 antibodies (Millipore, 05-368), then 1 hour at 4° C. with FITC-conjugated secondary antibodies (Life technology).

[7] = system: kinetochore localisation of SAC proteins in HeLa cells; experiment: Immunofluorescence of kinetochore proteins in HeLa cells; type: cell-based
Protocol: as §2

[8] = system: NvR12 HCT116 cells (p.C604W); experiment: Flow cytometry cell cycle profiles, NvR12; type: cell-based, human; conditions: NvR12, 24 hours
Protocol: as §3

parental HCT116 cells [9] = experiment: Time-lapse microscopy, time in mitosis, parental HCT116; type: cell-based, human
Protocol: as §2

parental HCT116 cells [10] = experiment: Cell viability assay (CellTiterGlo, 4 days), parental HCT116; type: cell-based, human
[11] = summary table of inhibitors vs mutations
[12] = ATP at Km, read-out: IC50 values at ATP Km
[13] = IC50 values at 1 mM ATP, 1 mM ATP

IC50 [3, 12]: 2600 ± 650 nM
IC50 [3, 13]: 8300 ± 2900 nM
fold resistance of recombinant p.C604W vs wild-type protein ([3]; recombinant full-length MPS1 (Table 2)): 75 fold
IC50 [4, 12]: 10.8 ± 3.7 nM
IC50 [4, 13]: 110 ± 18 nM
Structure (SMILES): Cn1cc(-c2ccc(Nc3ccc(C#N)c(NC4CCCCC4)n3)cc2OCC#N)cn1 [ONCOII]
resistance in cell viability assay vs parental ([1]; p.M600T (NvR1)): able to confer resistance
Resistance conferred by mutation p.M600T [1, 11]: R
resistance / potency in cell viability assay vs parental ([2]; p.C604W (NvR12)): able to confer resistance
Resistance conferred by mutation p.C604W [2, 11]: R

Structure (SMILES): Cn1cc(-c2cc3cnc(Nc4ccc(-c5cncn5C)cc4Cl)cc3n2C(=O)OC(C)(C)C)cn1 [CCT251455, Tert-Butyl 6-(2-Chloro-4-(1-methyl-1H-imidazol-5-yl)phenylamino)-2-(1-methyl-1H-pyrazol-4-yl)-1H-pyrrolo[3,2-c]pyridine-1-carboxylate]
concentration at which cell cycle profiles were abolished (parental HCT116 cells [5]; HCT116, 24 hour treatment): 0.32 µM
cells with unaligned chromosomes (HeLa cells): 98%
time to exit mitosis (HeLa cells): ~17 min
cells that had exited mitosis [6]: ~100%
MPS1 kinetochore localisation ([7]; 0.6 μM CCT251455): increased
MPS1 pT33/S37 and pT676 signals ([7]; 0.6 μM CCT251455): no longer visible
kinetochore recruitment of BUB1 and BUBR1 ([7]; 0.6 μM CCT251455): reduced, but still visible by microscopy
kinetochore recruitment of MAD2, MAD1, ZW10 and CDC20 ([7]; 0.6 μM CCT251455): severely inhibited
kinetochore localisation of ZWINT-1, CENP-E, CENP-F and CENP-A pS7 ([7]; controls): remained unaffected

IC50 [3, 12]: 13.3 ± 2.9 nM
IC50 [3, 13]: 16.3 ± 4 nM
IC50 [4, 12]: 3.3 ± 1.1 nM
IC50 [4, 13]: 60 ± 20 nM
Structure (SMILES): Cc1ncc(-c2ccc(Nc3cc4c(cn3)cc(-c3cnn(C)c3)n4C(=O)OC(C)C)cc2)n1C [Compound 2, Isopropyl 6-(4-(1,2-dimethyl-1H-imidazol-5-yl)-2-phenylamino)-2-(1-methyl-1H-pyrazol-4-yl)-1H-pyrrolo[3,2-c]pyridine-1-carboxylate]
concentration causing loss of cell cycle profiles [8]: 100 nM
concentration causing loss of cell cycle profiles (parental HCT116 cells [5]; parental, 24 hours): 600 nM

Structure (SMILES): CCc1cccc(CC)c1NC(=O)c1nn(C)c2c1CCc1cnc(Nc3ccc(C(=O)NC4CCN(C)CC4)cc3OC(F)(F)F)nc1-2 [NMS-P715]
GI50 ([1]; HCT-116, read-out: GI50 NMS-P715, NvR1, p.M600T): 2540 nM
GI50 ([1]; HCT-116, read-out: GI50 NMS-P715, NvR2, p.M600T): 1850 nM
GI50 ([1]; HCT-116, read-out: GI50 NMS-P715, NvR4, p.M600T): 2250 nM
GI50 ([1]; HCT-116, read-out: GI50 NMS-P715, NvR5, p.M600T): 2480 nM
GI50 ([1]; HCT-116, read-out: GI50 NMS-P715, NvR6, p.M600T): 2320 nM
GI50 ([2]; HCT-116, read-out: GI50 NMS-P715, NvR9, p.C604W): 2150 nM
GI50 ([2]; HCT-116, read-out: GI50 NMS-P715, NvR12, p.C604W): 2430 nM
GI50 ([2]; HCT-116, read-out: GI50 NMS-P715, NvR13, p.C604W): 4250 nM
GI50 ([2]; HCT-116, read-out: GI50 NMS-P715, NvR14, p.C604W): 3730 nM
GI50 ([2]; HCT-116, read-out: GI50 NMS-P715, NvR15, p.C604W): 3820 nM
GI50 ([2]; HCT-116, read-out: GI50 NMS-P715, NvR16, p.C604W): 3260 nM
GI50 ([2]; HCT-116, read-out: GI50 NMS-P715, NvR17, p.C604W): 3760 nM
GI50 ([2]; HCT-116, read-out: GI50 NMS-P715, NvR18, p.C604W): 3760 nM
GI50 ([2]; HCT-116, read-out: GI50 NMS-P715, NvR19, p.C604W): 3500 nM
GI50 ([2]; HCT-116, read-out: GI50 NMS-P715, NvR20, p.C604W): 3860 nM
GI50 ([2]; HCT-116, read-out: GI50 NMS-P715, NvR21, p.C604W): 2120 nM
GI50 ([2]; HCT-116, read-out: GI50 NMS-P715, NvR22, p.C604W): 2200 nM
GI50 ([2]; HCT-116, read-out: GI50 NMS-P715, NvR23, p.C604W): 2270 nM
GI50 ([2]; HCT-116, read-out: GI50 NMS-P715, NvR24, p.C604W): 2240 nM
GI50 ([2]; HCT-116, read-out: GI50 NMS-P715, NvR25, p.C604W): 4330 nM
GI50 ([2]; HCT-116, read-out: GI50 NMS-P715, NvR26, p.C604W): 2250 nM
GI50 ([2]; HCT-116, read-out: GI50 NMS-P715, NvR29, p.C604W): 4080 nM
GI50 ([2]; HCT-116, read-out: GI50 NMS-P715, NvR30, p.C604W): 1240 nM
GI50 ([2]; HCT-116, read-out: GI50 NMS-P715, NvR34, p.C604W): 2090 nM
GI50 ([2]; HCT-116, read-out: GI50 NMS-P715, NvR35, p.C604W): 2440 nM
mitotic exit (SAC override) (parental HCT116 cells [9]; 1 μM NMS-P715): rapidly exited mitosis

Structure (SMILES): COc1cc(OC2CCN(C)CC2)ccc1Nc1ncc2c(n1)n(C1CCCC1)c(=O)n2C [AZ3146]
effect on cell cycle profile (parental HCT116 cells [5]; 1 and 2 μM AZ3146, 24 hours): G1 and G2/M peaks are increasingly abolished
lethal concentration in cell viability assays (parental HCT116 cells [10]): 2 µM
GI50 (parental HCT116 cells [10]; Homo sapiens, HCT-116): 800 nM
time to exit mitosis (parental HCT116 cells [9]; 2 μM AZ3146): 10 min

Source: patent US20180112258A1, “MEDICAL USES AND METHODS FOR TREATING CANCER USING MONOPOLAR SPINDLE 1 (MPS1) KINASE INHIBITORS” (THE INSTITUTE OF CANCER RESEARCH: ROYAL CANCER HOSPITAL, priority 2015, published 2018)
